Some results are limits rather than exact numbers.

One assay deals with T1, GST-tagged Tnks-2 (873-1166 aa) (Homo sapiens, UniProt Q9H2K2).
T1 construct: GST-tagged Tnks-2 (873-1166 aa, prepared in-house); made in house
T1 sequence (Q9H2K2 873-1166): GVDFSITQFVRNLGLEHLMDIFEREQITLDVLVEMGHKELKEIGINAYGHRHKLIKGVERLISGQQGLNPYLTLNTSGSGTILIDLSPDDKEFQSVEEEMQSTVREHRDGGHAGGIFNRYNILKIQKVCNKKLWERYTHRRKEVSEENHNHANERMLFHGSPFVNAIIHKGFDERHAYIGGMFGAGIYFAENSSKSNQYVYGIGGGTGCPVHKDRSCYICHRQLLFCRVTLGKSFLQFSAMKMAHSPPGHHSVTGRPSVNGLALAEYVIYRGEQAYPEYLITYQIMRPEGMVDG
The experiment in a line: TNKS2 activity ELISA (autoparsylation assay). Format: biochemical.
Conditions: not given
On the procedure:
(§1) Description of the TNKS1 and TNKS2 ELISA Assay
(§2) Biochemical Activity Testing of TNKS 1 and 2: Activity ELISA (Autoparsylation Assay)
(§3) For analysis of autoparsylation activity of TNKS 1 and 2 an activity ELISA is performed: In the first step GST tagged TNKS is captured on a Glutathione coated plate. Then the activity assay with biotinylated NAD is performed in the absence/presence of the compounds. During the enzymatic reaction GST tagged TNKS transfers biotinylated ADP-ribose to itself from biotinylated NAD as co-substrate. For the detection streptavidin-HRP conjugate is added that binds to the biotinylated TNKS and is thereby captured to the plates. The amount of biotinylated resp. autoparsylated TNKS is detected with a luminescence substrate for HRP. The level of the luminescence signal correlates directly with the amount of autoparsylated TNKS and therefore with activity of TNKS.
(§4) The activity ELISA is performed in 384 well Glutathione coated microtiter plates (Express capture Glutathione coated plate, Biocat, Heidelberg, Germany). The plates are pre-equilibrated with PBS. Then the plates are incubated with 50 μl 20 ng/well GST-tagged Tnks-1 (1023-1327 aa, prepared in-house), respectively GST-tagged Tnks-2 (873-1166 aa, prepared in-house) in assay buffer (50 mM HEPES, 4 mM Mg-chloride, 0.05% Pluronic F-68, 2 mM DTT, pH 7.7) overnight at 4° C. The plates are washed 3 times with PBS-Tween-20. The wells are blocked by incubation at room temperature for 20 minutes with 50 μl blocking buffer (PBS, 0.05% Tween-20, 0.5% BSA). Afterwards the plates are washed 3 times with PBS-Tween-20. The enzymatic reaction is performed in 50 μl reaction solution (50 mM HEPES, 4 mM Mg-chloride, 0.05% Pluronic F-68, 1.4 mM DTT, 0.5% DMSO, pH 7.7) with 10 μM bio-NAD (Biolog, Life science Inst., Bremen, Germany) as co-substrate in the absence or presence of the test compound (10 dilution concentrations) for 1 hour at 30° C. The reaction is stopped by 3 times washing with PBS-Tween-20. For the detection 50 μl of 20 ng/μl Streptavidin, HRP conjugate (MoBiTec, Göttingen, Germany) in PBS/0.05% Tween-20/0.01% BSA are added and the plates are incubated for 30 minutes at room temperature. After three times washing with PBS-Tween-20 50 μl of SuperSignal ELISA Femto Maximum sensitivity substrate solution (ThermoFisherScientific (Pierce), Bonn, Germany) are added. Following a 1 minute incubation at room temperature luminescence signals are measured with an Envision multimode reader (Perkin Elmer LAS Germany GmbH) at 700 nm. The full value used is the inhibitor-free reaction. The pharmacological zero value used is XAV-939 (Tocris) in a final concentration of 5 μM. The inhibitory values (IC50) are determined using either the program Symyx Assay Explorer® or Condosseo® from GeneData.
On the technique in general: In an ELISA, binding on a coated surface is turned into a signal by an enzyme label.
By IC50 is commonly meant the concentration that inhibits the measured activity by half. For `O=c1[nH]c(-c2ccc(CO)cc2)cn2cncc12` [Compound A5, 6-(4-hydroxymethyl-phenyl)-7H-imidazo[1,5-a]pyrazin-8-one], the IC50 is less than 300 nM.
Same read-out and setting: the result for `CC(C)(O)c1ccc(-c2cn3cncc3c(=O)[nH]2)cc1` [Compound A6, 6-[4-(1-hydroxy-1-methyl-ethyl)-phenyl]-7H-imidazo[1,5-a]pyrazin-8-one] reads less than 300 nM.
`Cc1ncc2c(=O)[nH]c(-c3ccc(C(C)(C)C)cc3)cn12` [Compound A7, 6-(4-tert-butyl-phenyl)-3-methyl-7H-imidazo[1,5-a]pyrazin-8-one] gave an IC50 of less than 300 nM.

The target in another assay is T2, GST-tagged Tankyrase-2 (873-1166 aa) (Homo sapiens, UniProt Q9H2K2).
T2 construct: GST-tagged Tankyrase-2 (873-1166 aa)
T2 sequence (Q9H2K2 873-1166): as above
Kind of assay: Tankyrase 2 autoparsylation assay (HTRF). It counts as biochemical. Particulars: read-out: IC50 TNKS2 enzyme assay. On the procedure: (§5) Biochemical activity testing of Tankyrase 1 and 2: Autoparsylation assay
(§6) The autoparsylation assay is run in two steps: the enzymatic reaction in which GST-tagged Tankyrase-1, resp Tankyrase-2 transferred biotinylated ADP-ribose to itself from biotinylated NAD as co-substrate and the detection reaction where a time resolved FRET between cryptate labelled anti-GST bound to the GST tag of the enzyme and Xlent® labelled-streptavidin bound the biotin-parsylation residue is analysed. The autoparsylation activity was detectable directly via the increase in HTRF signal.
(§7) The autoparsylation assay is performed as 384-well HTRF® (Cisbio, Codolet, France) assay format in Greiner low volume nb 384-well microtiter plates and is used for high throughput screen. 250 nM GST-tagged Tankyrase-1 (1023-1327 aa), respectively about 250 nM GST-tagged Tankyrase-2 (873-1166 aa) and 5 μM bio-NAD (Biolog, Life science Inst., Bremen, Germany) as co-substrate are incubated in a total volume of 5 μl (50 mM HEPES, 4 mM Mg-chloride, 0.05% Pluronic F-68, 1.4 mM DTT, 0.5% DMSO, pH 7.7) in the absence or presence of the test compound (10 dilution concentrations) for 90 min at 30° C. The reaction is stopped by the addition of 1 μl 50 mM EDTA solution. 2 μl of the detection solution (1.6 μM SA-Xlent® (Cisbio, Codolet, France), 7.4 nM Anti-GST-K® (Eu-labelled anti-GST, Cisbio, Codolet, France) in 50 mM HEPES, 800 mM KF, 0.1% BSA, 20 mM EDTA, 0.1% CHAPS, pH 7.0) are added. After 1 h incubation at room temperature the HTRF is measured with an Envision multimode reader (Perkin Elmer LAS Germany GmbH) at excitation wavelength 340 nm (laser mode) and emission wavelengths 615 nm and 665 nm. The ratio of the emission signals is determined. The full value used is the inhibitor-free reaction. The pharmacological zero value used is XAV-939 (Tocris) in a final concentration of 5 μM. The inhibitory values (IC50) are determined using either the program Symyx Assay Explorer® or Condosseo® from GeneData.
Take `O=c1[nH]c(-c2ccc(CO)cc2)cn2cncc12` [Compound A5, 6-(4-hydroxymethyl-phenyl)-7H-imidazo[1,5-a]pyrazin-8-one]: the IC50 was 300 to 3000 nM.
`CC(C)(O)c1ccc(-c2cn3cncc3c(=O)[nH]2)cc1` [Compound A6, 6-[4-(1-hydroxy-1-methyl-ethyl)-phenyl]-7H-imidazo[1,5-a]pyrazin-8-one]: the 50% inhibitory concentration (IC50) was 300 to 3000 nM.
For the compound `Cc1ncc2c(=O)[nH]c(-c3ccc(C(C)(C)C)cc3)cn12` [Compound A7, 6-(4-tert-butyl-phenyl)-3-methyl-7H-imidazo[1,5-a]pyrazin-8-one], the IC50 lay in the range of 300 to 3000 nM.

A further assay concerns Tankyrases. The experiment in a line: Cellular inhibition of Tankyrase, Axin2 level in DLD1 cells (Luminex). Format: cell-based. Particulars: Axin2 increase, 24 hours, read-out: EC50 [M] TNKS cellular assay. On the procedure: Measurement of Cellular Inhibition of Tankyrase
Since Tankyrases have been described to modulate cellular level of Axin2 (Huang et al., 2009; Nature) the increase of Axin2 level is used as read-out for determination of cellular inhibition of Tankyrases in a Luminex based assay.
Cells of the colon carcinoma cell line DLD1 are plated in 96 well plates with 1.5×10^4 cells per well. Next day, cells are treated with a serial dilution of test compound in seven steps as triplicates with a final DMSO concentration of 0.3%. After 24 hours, cells are lysed in lysis buffer (20 mM Tris/HCl pH 8.0, 150 mM NaCl, 1% NP40, 10% Glycerol) and lysates are cleared by centrifugation through a 96 well filter plate (0.65 μm). Axin2 protein is isolated from cell lysates by incubation with a monoclonal anti-Axin2 antibody (R&D Systems #MAB6078) that is bound to fluorescent carboxybeads. Then, bound Axin2 is specifically detected with a polyclonal anti-Axin2 antibody (Cell Signaling #2151) and an appropriate PE-fluorescent secondary antibody. The amount of isolated Axin2 protein is determined in a Luminex^200 machine (Luminex Corporation) according to the manufacturer's instruction by counting 100 events per well. Inhibition of Tankyrase by test compounds results in higher levels of Axin2 which directly correlates with an increase of detectable fluorescence. As controls cells are treated with solvent alone (neutral control) and with a Tankyrase reference inhibitor IWR-2 (3E-06 M) which refers as control for maximum increase of Axin2. For analysis, the obtained data are normalized against the untreated solvent control and fitted for determination of the EC50 values using the Assay Explorer software (Accelrys).
What is called EC50 is the concentration giving half of the maximal effect. On to `Cc1ncc2c(=O)[nH]c(-c3ccc(C(C)(C)C)cc3)cn12` [Compound A7, 6-(4-tert-butyl-phenyl)-3-methyl-7H-imidazo[1,5-a]pyrazin-8-one], for which the EC50 is less than 3e-07 M.
The same measure, in the same setting: the result for `Cc1ncc2c(=O)[nH]c(-c3ccc(C(C)(C)O)cc3)cn12` [Compound A8, 6-[4-(1-hydroxy-1-methyl-ethyl)-phenyl]-3-methyl-7H-imidazo[1,5-a]pyrazin-one] reads 3e-07 to 3e-06 M.

A further assay concerns β-catenin.
Assay: not given
To be noted: Huang et al., 2009; cited from earlier work.
For `Oc1nc(-c2ccc(C(F)(F)F)cc2)nc2c1CSCC2` [XAV939], the “Wnt-stimulated accumulation of β-catenin” value is listed as “blocked”.

The target of a further assay is T3, GST-tagged Tnks-1 (1023-1327 aa) (Homo sapiens, UniProt O95271).
T3 construct: GST-tagged Tnks-1 (1023-1327 aa, prepared in-house); made in house
T3 sequence (O95271 1023-1327): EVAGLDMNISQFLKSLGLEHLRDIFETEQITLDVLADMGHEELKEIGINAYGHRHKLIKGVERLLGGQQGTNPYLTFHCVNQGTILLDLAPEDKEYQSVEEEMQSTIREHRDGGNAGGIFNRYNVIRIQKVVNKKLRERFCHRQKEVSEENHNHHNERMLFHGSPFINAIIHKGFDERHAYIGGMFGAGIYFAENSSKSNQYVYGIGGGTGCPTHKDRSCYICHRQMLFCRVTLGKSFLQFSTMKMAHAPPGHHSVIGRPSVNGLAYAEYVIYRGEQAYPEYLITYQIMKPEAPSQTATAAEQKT
The experiment in a line: TNKS1 activity ELISA (autoparsylation assay). Format: biochemical.
Conditions: not given
On the procedure:
as §1, §2, §3, §4
`O=c1[nH]c(-c2ccc(CO)cc2)cn2cncc12` [Compound A5, 6-(4-hydroxymethyl-phenyl)-7H-imidazo[1,5-a]pyrazin-8-one]: the IC50 is less than 300 nM.
Same read-out and setting: the result for `CC(C)(O)c1ccc(-c2cn3cncc3c(=O)[nH]2)cc1` [Compound A6, 6-[4-(1-hydroxy-1-methyl-ethyl)-phenyl]-7H-imidazo[1,5-a]pyrazin-8-one] reads less than 300 nM; that for `Cc1ncc2c(=O)[nH]c(-c3ccc(C(C)(C)C)cc3)cn12` [Compound A7, 6-(4-tert-butyl-phenyl)-3-methyl-7H-imidazo[1,5-a]pyrazin-8-one], less than 300 nM.

For a further assay, the system named is DLD-1-cancer cells.
Assay: not given
To be noted: Huang et al., 2009; cited from earlier work.
For the compound `Oc1nc(-c2ccc(C(F)(F)F)cc2)nc2c1CSCC2` [XAV939], the “growth of DLD-1-cancer cells” value is “inhibits growth”.

The next assay deals with T4, His-tagged Parp-1 (Homo sapiens, UniProt P09874).
T4 construct: purchased Enzo Life Sciences GmbH, Lörrach, Germany
T4 sequence (P09874 whole entry): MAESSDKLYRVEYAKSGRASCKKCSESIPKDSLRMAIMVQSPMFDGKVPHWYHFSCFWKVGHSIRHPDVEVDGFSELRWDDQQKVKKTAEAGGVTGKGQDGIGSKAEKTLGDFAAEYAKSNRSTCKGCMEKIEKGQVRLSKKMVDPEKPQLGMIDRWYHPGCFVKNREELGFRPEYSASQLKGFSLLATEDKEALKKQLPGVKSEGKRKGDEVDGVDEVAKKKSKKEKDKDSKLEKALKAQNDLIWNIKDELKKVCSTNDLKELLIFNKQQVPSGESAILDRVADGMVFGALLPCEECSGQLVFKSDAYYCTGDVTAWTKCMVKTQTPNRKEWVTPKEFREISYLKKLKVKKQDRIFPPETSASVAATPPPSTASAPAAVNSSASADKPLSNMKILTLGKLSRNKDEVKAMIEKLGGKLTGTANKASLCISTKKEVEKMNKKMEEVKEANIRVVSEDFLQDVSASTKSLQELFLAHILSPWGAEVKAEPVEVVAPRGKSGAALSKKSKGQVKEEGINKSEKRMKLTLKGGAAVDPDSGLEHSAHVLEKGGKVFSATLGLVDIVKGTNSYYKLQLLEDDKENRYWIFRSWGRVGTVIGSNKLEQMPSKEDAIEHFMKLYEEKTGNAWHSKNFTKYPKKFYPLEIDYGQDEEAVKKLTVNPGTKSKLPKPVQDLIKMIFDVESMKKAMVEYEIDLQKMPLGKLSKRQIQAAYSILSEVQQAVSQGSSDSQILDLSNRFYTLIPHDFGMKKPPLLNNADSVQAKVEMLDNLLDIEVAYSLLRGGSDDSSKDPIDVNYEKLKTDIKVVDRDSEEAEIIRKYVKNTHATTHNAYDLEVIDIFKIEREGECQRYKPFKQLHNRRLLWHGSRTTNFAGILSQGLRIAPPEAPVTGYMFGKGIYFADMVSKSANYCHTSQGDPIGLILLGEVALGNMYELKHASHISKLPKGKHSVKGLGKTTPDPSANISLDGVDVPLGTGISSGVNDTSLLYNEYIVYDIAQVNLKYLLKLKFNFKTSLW
The experiment in a line: PARP-1 autoparsylation assay (HTRF). To be noted: PARP-1 autoparsylation HTRF. Format: biochemical. An excerpt:
Description of the PARP1 Assay
Biochemical Activity Testing of PARP-1: Autoparsylation Assay
The autoparsylation assay is run in two steps: the enzymatic reaction in which His-tagged Parp-1 transfers biotinylated ADP-ribose/ADP-ribose to itself from biotinylated NAD/NAD as co-substrate and the detection reaction where a time resolved FRET between cryptate labelled anti-His antibody bound to the His tag of the enzyme and Xlent® labelled-streptavidin bound the biotin-parsylation residue is analysed. The autoparsylation activity is detectable directly via the increase in HTRF signal.
The autoparsylation assay is performed as 384-well HTRF® (Cisbio, Codolet, France) assay format in Greiner low volume nb 384-well microtiter plates. 35 nM His-tagged Parp-1 (human, recombinant, Enzo Life Sciences GmbH, Lörrach, Germany) and a mixture of 125 nM bio-NAD (Biolog, Life science Inst., Bremen, Germany) and 800 nM NAD as co-substrate are incubated in a total volume of 6 μl (100 mM Tris/HCl, 4 mM Mg-chloride, 0.01% IGEPAL® CA630, 1 mM DTT, 0.5% DMSO, pH 8, 13 ng/μl activated DNA (BPS Bioscience, San Diego, US)) in the absence or presence of the test compound (10 dilution concentrations) for 150 min at 23° C. The reaction is stopped by the addition of 4 μl of the Stop/detection solution (70 nM SA-Xlent® (Cisbio, Codolet, France), 2.5 nM Anti-His-K® (Eu-labelled anti-His, Cisbio, Codolet, France) in 50 mM HEPES, 400 mM KF, 0.1% BSA, 20 mM EDTA, pH 7.0). After 1 h incubation at room temperature the HTRF is measured with an Envision multimode reader (Perkin Elmer LAS Germany GmbH) at excitation wavelength 340 nm (laser mode) and emission wavelengths 615 nm and 665 nm. The ratio of the emission signals is determined. The full value used is the inhibitor-free reaction. The pharmacological zero value used is Olaparib (LClabs, Woburn, US) in a final concentration of 1 μM. The inhibitory values (IC50) are determined using either the program Symyx Assay Explorer® or Condosseo® from GeneData.
For orientation: TR-FRET usually uses a lanthanide donor and a delayed reading to cut background.
On to `CC(C)(O)c1ccc(-c2cn3cncc3c(=O)[nH]2)cc1` [Compound A6, 6-[4-(1-hydroxy-1-methyl-ethyl)-phenyl]-7H-imidazo[1,5-a]pyrazin-8-one], for which the IC50 fell in the range of 3000 to 50000 nM.

Another assay deals with T5, GST-tagged Tankyrase-1 (1023-1327 aa) (Homo sapiens, UniProt O95271).
T5 construct: GST-tagged Tankyrase-1 (1023-1327 aa)
T5 sequence (O95271 1023-1327): as the sequence (O95271 1023-1327) above
The experiment in a line: Tankyrase 1 autoparsylation assay (HTRF). It counts as biochemical. Particulars: read-out: IC50 TNKS1 enzyme assay. On the procedure: as §5, §6, §7
`O=c1[nH]c(-c2ccc(CO)cc2)cn2cncc12` [Compound A5, 6-(4-hydroxymethyl-phenyl)-7H-imidazo[1,5-a]pyrazin-8-one]: the IC50 was in the range of 300 to 3000 nM.
For the compound `CC(C)(O)c1ccc(-c2cn3cncc3c(=O)[nH]2)cc1` [Compound A6, 6-[4-(1-hydroxy-1-methyl-ethyl)-phenyl]-7H-imidazo[1,5-a]pyrazin-8-one], the IC50 lay within 300 to 3000 nM.
Still for that read-out and setting: then `Cc1ncc2c(=O)[nH]c(-c3ccc(C(C)(C)C)cc3)cn12` [Compound A7, 6-(4-tert-butyl-phenyl)-3-methyl-7H-imidazo[1,5-a]pyrazin-8-one], with 300 to 3000 nM.

Values taken from US9718826B2, “Imidazopyrazinone derivatives” (Merck Patent GmbH, priority 2013, dated 2017).
